Measurements reported in paper PMC11965660, “Isobavachalcone ameliorates Alzheimer disease pathology by autophagy-mediated clearance of amyloid beta and inhibition of NLRP3 inflammasome in primary astrocytes and 5x-FAD mice” (Frontiers in Pharmacology, 2025).

Assays:
[1] = tested on: 5x-FAD mice; assay: Open field test; format: in vivo; conditions: 25 and 50 mg/kg oral, vs 5x-FAD control
Description: Hemizygous 5x-FAD transgenic mice (B6.Cg-Tg(APPSwFlLon, PSEN1*M146L*L286V) 6799Vas/Mmjax; MMRRC Strain: 034848-JAX) on congenic C57BL/6J genetic background were used for experiments. The 5x-FAD mice were genotyped using APP-specific qPCR probes to detect the transgene as per the protocol of Jackson Laboratory. Six months old 5x-FAD mice were randomly divided into three groups (n = 5), based on their body weights, with three males and two females in each group. We used mixed-cohort of males and females for our study to exclude any gender biased effect of IBC. Also, AD symptoms are more pronounced in females than in males ([Aggarwal and Mielke, 2023]), making it possible that males and females respond differently to the drug and treatment. […]
To check the effect of IBC on the behavior of 5x-FAD mice, open field test (OFT), rotarod (Make; Ugo Basile, rota-rod for mice 7650) and radial arm maze (Make; Ugo Basile) tests were performed. […] After acclimatizing mice with rotarod for 5 days, their latency to fall was calculated on the day of analysis. […] Distance traveled, speed, time spent in corner and center zones and mobile episodes were recorded through an automated video tracking system using AnyMaze software. […] The movement of mice was tracked with the help of automated AnyMaze software connected with a tracking camera and various memory retention parameters were assessed.

[2] = tested on: NLRP3 inflammasome; assay: NLRP3 inflammasome activation in primary astrocytes: immunoblotting, ASC oligomers and specks, co-localization; format: cell-based, C57BL/6J mice; conditions: for co-localization of CASP1 and NLRP3: 10 μM
Procedure: Primary astrocytes were first treated with microglia conditional media to induce astrogliosis ([Liddelow et al., 2017]). For this, the microglia (N9) cell line, provided by Dr. Anirban Basu (National Brain Research Centre, Gurgaon, India) was cultured in RPMI-1640. N9 cells (Passage 28-35) were seeded in 24 well plate at density 0.05 × 10^6 per well. The cells were treated with 1 μg/ml LPS, and supernatant was collected after 24 h. Seeded astrocytes were then treated with the LPS stimulated N9 cells supernatant for 24 h. Thereafter, the treatment for NLRP3 inflammasome activation was given, including priming with fresh 1 μg/ml LPS for 4 h, followed by washing and IBC or MCC950 (100 nM) treatment for 1 h in incomplete media (media without fetal bovine serum). ATP at 5 mM concentration was used as secondary signal for 30 min.
Following treatment with 5 and 10 μM IBC (1 h) and NLRP3 inflammasome activation in primary astrocytes, cells were lysed with ice-cold buffer (KCl [150 mM], HEPES-KOH [20 mM, pH 7.5], NP-40 [1%], sodium orthovanadate [1 mM], PMSF [0.1 mM] and protease inhibitor cocktail [1%]). Cells were centrifuged at 300 g for 10 min. The supernatant was collected for western blot analysis of total ASC protein. The pellet was washed with cold PBS and resuspended in 500 µL cold PBS. For the crosslinking of ASC, 2 mM of […] was added to the resuspended pellet and incubated at 37°C for 30 min in water bath. After centrifugation, the supernatant was discarded, and a 2X Laemmli buffer was added to the pellet. The samples were heated at 95°C for 5 min and subjected to western blotting for analyzing ASC oligomers.
Levels of cleaved IL-1β and caspase-1 were analyzed in cellular supernatant. The supernatant collected after the end of the experiment was incubated with StartaClean resin for 1 h at 4°C. Samples were kept on rotation so that the resin could bind properly with proteins. The concentrated resin pellet was obtained by centrifuging samples at 300 g for 10 min 2X Laemmli buffer was added to the resin pellet, heated at 95°C for 10 min, and subjected to western blotting.
Cellular lysates were prepared using radio immuno precipitation assay (RIPA) buffer for protein analysis. Briefly, the cell pellet was dissolved in RIPA buffer containing sodium fluoride, sodium orthovanadate, phenyl methyl sulfonyl fluoride (PMSF) and 1% protease inhibitor cocktail for 1 h with vertexing sample every 15 min. The supernatant was collected after high-speed centrifugation of samples for 20 min at 4°C. For analysis of proteins in mice hippocampi, the hippocampi isolated from mice brains was immediately washed with saline and stored in liquid nitrogen. For lysates preparation, tissue was homogenized in RIPA buffer substituted with sodium fluoride, sodium orthovanadate, phenyl methyl sulfonyl fluoride and 1% protease inhibitor cocktail. Total protein was measured using Bradford assay. Proteins were separated using SDS-PAGE and then transferred from gel to PVDF membrane. The protein of interest was labeled with a specific primary antibody overnight at 4°C. Further, the blot was incubated with corresponding HRP-conjugated secondary antibody for 1 h at room temperature. The band were visualized in the Genaxy Chemi Doc imaging system (Make: Syngene, Maryland, USA; Model: G: BOX, XT-4). Densitometry analysis of all the immunoblots was performed by using ImageJ software. Band density of proteins was normalized with β-actin. The phosphorylated proteins were normalized with their total forms.
Cells were seeded on coverslips in 6 well plates. After treatments, cells were fixed with 4% paraformaldehyde (PFA) for 15 min and permeabilized with 0.1% Triton-X 100 for 7 min. Blocking was done for 30 min with 2% BSA, followed by overnight incubation with primary antibody. Alexa fluor conjugated secondary antibody incubation was given to cells for 1 h for labeling. The nucleus was stained with 4,6-diamidino-2-phenylindole (DAPI) (1 μg/mL) for 10 min. […]

[3] = LPS + ATP, 5 and 10 μM, western blot
[4] = in the presence of LPS and ATP, 5 and 10 μM

CC(C)=CCc1c(O)ccc(C(=O)/C=C/c2ccc(O)cc2)c1O [IBC, isobavachalcone] was tested, and the “exploratory behavior in open field” value [1] was “improved exploratory behavior”, the ASC speck formation ([2]; 5 μM and 10 µM, vs cells induced with ATP) was “highly significant (p < 0.0001) reduction” and the “co-localization of CASP1 and NLRP3” value ([2]; in the presence of siAMPK) was “did not affect the co-localization”. The “co-localization of CASP1 and NLRP3” value ([2]; vs LPS + ATP) was “reduced the co-localization”, the “ASC monomer, dimer, and oligomer formation” value ([2]; LPS + ATP, 5 and 10 μM) was “inhibited” and the “cleaved CASP1 in supernatant” value [2, 3] was “reduced release”. The “cleaved IL-1β in supernatant” value [2, 3] was “reduced release”, the NLRP3 protein expression ([2]; LPS + ATP, western blot) was “no change” and the “AMPK phosphorylation (Thr 172)” value [2, 4] was “significantly enhanced phosphorylation”. For the same compound, the LC3B-II level [2, 4] was “marked increase”, the SQSTM1 level [2, 4] was “significant decline” and the “inhibitory effect on IL-1b and CASP1 under AMPK knockdown” value ([2]; siAMPK, LPS + ATP) was “completely reversed”.
